Test results reported in US8507410B2, “Pyridazinone compound and use thereof” (Sumitomo Chemical Company, Limited, priority 2009, dated 2013).
One block for each compound: values may come before it.

Experiments:
Galium aparine = assay: Test Example 1-3: foliar spray, controlling effect on Galium aparine; assay type: in vivo; set-up: key: 0 represents “no effect”; 10 represents “complete death”; a state of the plant therebetween is classified into 1 to 9; details: treatment amount 250 g/ha; sprayed at second- to third-leaf stage; visually evaluated after 20 days
Procedure: A plastic cup with a diameter of 8 cm and a depth of 6.5 cm was filled with soil. Seeds of Galium aparine were sowed in the cup, and then the plant was grown until the second- to third-leaf stage. Then, a determined amount of a test solution containing the compound of the present invention was sprayed onto the whole plant uniformly. The test solution was prepared by dissolving a predetermined amount of the compound of the present invention in a 2% solution of Tween 20 (polyoxyethylene sorbitan fatty acid ester, MP Biomedicals, Inc.) in dimethylformamide and then diluting the solution with water. After the spray treatment, the plant was grown in a greenhouse. After 20 days, a controlling effect of the compound on Galium aparine was visually evaluated. The effect was classified into 11 levels, from 0 to 10 (0 represents “no effect”; 10 represents “complete death”; and a state of the plant therebetween is classified into 1 to 9).
(§1) Compound D was similarly tested as a comparative example.

Lolium multiflorum = assay: Test Example 1-1: foliar spray, controlling effect on Lolium multiflorum; assay type: in vivo; set-up: key: 0 represents “no effect”; 10 represents “complete death”; a state of the plant therebetween is classified into 1 to 9; details: treatment amount 250 g/ha; sprayed at first to second leaf stage; visually evaluated after 20 days
Procedure: A plastic cup with a diameter of 8 cm and a depth of 6.5 cm was filled with soil. Seeds of Lolium multiflorum were sowed in the cup, and then the plant was grown until the first to second leaf stage. Then, a determined amount of a test solution containing the compound of the present invention was sprayed onto the whole plant uniformly. The test solution was prepared by dissolving a predetermined amount of the compound of the present invention in a 2% solution of Tween 20 (polyoxyethylene sorbitan fatty acid ester, MP Biomedicals, Inc.) in dimethylformamide and then, diluting the solution with water. After the spray treatment, the plant was grown in a greenhouse. After 20 days, a controlling effect of the compound on Lolium multiflorum was visually evaluated. The effect was classified into 11 levels, from 0 to 10 (0 represents “no effect”; 10 represents “complete death”; and a state of the plant therebetween is classified into 1 to 9).
Compound D as shown below was similarly tested as a comparative example.

Echinochloa crus-galli = assay: Test Example 1-2: foliar spray, controlling effect on Echinochloa crus-galli; assay type: in vivo; set-up: key: 0 represents “no effect”; 10 represents “complete death”; a state of the plant therebetween is classified into 1 to 9; details: treatment amount 1,000 g/ha; sprayed at second- to third-leaf stage; visually evaluated after 20 days
Procedure: A plastic cup with a diameter of 8 cm and a depth of 6.5 cm was filled with soil. Seeds of Echinochloa crus-galli were sowed in the cup, and then the plant was grown until the second- to third-leaf stage. Then, a determined amount of a test solution containing the compound of the present invention was sprayed onto the whole plant uniformly. The test solution was prepared by dissolving a predetermined amount of the compound of the present invention in a 2% solution of Tween 20 (polyoxyethylene sorbitan fatty acid ester, MP Biomedicals, Inc.) in dimethylformamide and then diluting the solution with water. After the spray treatment, the plant was grown in a greenhouse. After 20 days, a controlling effect of the compound on Echinochloa crus-galli was visually evaluated. The effect was classified into 11 levels, from 0 to 10 (0 represents “no effect”; 10 represents “complete death”; and a state of the plant therebetween is classified into 1 to 9).
as §1

Adoxophyes orana = assay: Test Example 2-1: artificial diet test on first-instar larvae of Adoxophyes orana; assay type: in vivo; details: 500 ppm test solution, 1 mL on artificial diet; 25° C., 7 days
Procedure: The formulation of the compound of the present invention obtained in Formulation Example 3 was diluted with water so that the concentration of the active ingredient became 500 ppm to prepare a test solution.
(§2) An artificial diet, Silkmate 2S (Nihon Nosan Kogyo Corp.) was sliced into 2 mm in thickness and then placed on the bottom of a polyethylene cup. Then, 1 mL of the test solution was poured into the polyethylene cup. After air dried, 30 first-instar larvae of Adoxophyes orana were released into the polyethylene cup, and the cup was sealed with a lid. After the polyethylene cup was kept at 25° C. for 7 days, the number of surviving insects was counted. A death rate was calculated by the following equation, and the effect of the tested compound was evaluated with the following insecticidal indexes. Death rate (%)={1−(Number of surviving insects/Number of tested insects)}×100 Insecticidal indexes 4: death rate of 100%, 3: death rate of 80-99%, 2: death rate of 60-79%, 1: death rate of 30-59%, 0: death rate of 0-29%

Bemisia tabaci = assay: Test Example 2-7: tomato seedling spray, larvae of Bemisia tabaci; assay type: in vivo; details: 500 ppm, 10 ml/cup sprayed on tomato seedling; 25° C., 7 days
Procedure: The formulation of the compound of the present invention obtained in Reference Example 4 was diluted with water so that the concentration of the active ingredient became 500 ppm to prepare a test solution. On a tomato seedling at the third true leaf stage placed in a polyethylene cup, imagoes of Bemisia tabaci were released and allowed to lay eggs for about 24 hours. The plant was placed in a greenhouse for 8 days. When larvae of Bemisia tabaci hatched from the eggs, 10 ml/cup of the test solution was sprayed. After the plant was kept at 25° C. for 7 days, the number of the larvae surviving on the tomato leaves was counted, and a controlling value was determined by the following equation. Controlling value (%)={1−(Cb×Tai)/(Cai×Tb)}×100 wherein Cb: the number of insects in a non-treated section before treatment, Cai: the number of insects in a non-treated section on observation, Tb: the number of insects in a treated-section before treatment, Tai: the number of insects in a treated section on observation.

[1] = system: Frankliniella occidentalis; assay: Test Example 2-8: sprayed cucumber leaf, larvae of Frankliniella occidentalis; assay type: in vivo; details: 500 ppm, 10 mL/cup sprayed on cucumber seedling; 25° C., 7 days
Procedure: The formulation of the compound of the present invention obtained in Reference Example 3 was diluted with water so that the concentration of the active ingredient became 500 ppm to prepare a test solution. On a cucumber seedling at the second true leaf stage planted in a polyethylene cup, 10 mL/cup of the test solution was sprayed. After the test solution was dried, the first true […] cut off and then placed in a polyethylene cup. Into the polyethylene cup, 20 larvae of Frankliniella occidentalis were released, and the cup was sealed with a lid. After the cup was kept at 25° C. for 7 days, the number of the insects surviving on the cucumber leaves was counted, and a controlling value was determined by the following equation. Controlling value (%)={1-(Cb×Tai)/(Cai×Tb)}×100 wherein Cb: the number of insects in a non-treated section before treatment, Cai: the number of insects in a non-treated section on observation, Tb: the number of insects in a treated-section before treatment, Tai: the number of insects in a treated section on observation.

Spodoptera litura = assay: Test Example 2-2: artificial diet test on fourth-instar larvae of Spodoptera litura; assay type: in vivo; details: 500 ppm test solution, 1 mL on artificial diet; 25° C., 6 days
Procedure: as §2, with “The formulation of the compound of the present invention obtained in Formulation Example 3 was diluted with water so that the concentration of the active ingredient became 500 ppm to prepare a test solution. An” for “An”, “diet, Insecta LF” for “diet, Silkmate 2S”, “dried, 5 fourth-instar” for “dried, 30 first-instar”, “of Spodoptera litura” for “of Adoxophyes orana”, “for 6” for “for 7”

Culex pipiens pallens = assay: Test Example 2-3: last-instar larvae of Culex pipiens pallens released into dilution; assay type: in vivo; details: active ingredient concentration 3.5 ppm in water; after 8 days
Procedure: The formulation of the compound of the present invention obtained in Reference Example 3 was diluted with water so that the concentration of the active ingredient became 500 ppm to prepare a test solution. 0.7 mL of the test solution was diluted with ion-exchanged water so that the active ingredient concentration became 3.5 ppm. Into the dilution, 20 last-instar larvae of Culex pipiens pallens were released. After 8 days, the number of dead insects was counted. A death rate was calculated by the following equation, and the effect of the tested compound was evaluated with following insecticidal indexes of 4: death rate of 91-100%, 2: death rate of 11-90%, and 0: death rate of 0-10%. Death rate (%)=(Number of dead insects/Number of tested insects)×100

Aphis gossypii = assay: Test Example 2-6: cucumber seedling spray, imagoes of Aphis gossypii; assay type: in vivo; details: 500 ppm, 10 mL sprayed on cucumber seedling one day after release; counted five days after spraying
Procedure: The formulation of the compound of the present invention obtained in Reference Example 3 was diluted with water so that the concentration of the active ingredient became 500 ppm to prepare a test solution. On a cucumber seedling at the second true leaf stage placed in a polyethylene cup, about 30 imagoes of Aphis gossypii were released. One day after the release of aphids, 10 mL of the test solution was sprayed on the plant. Five days after the spraying treatment, the number of the insects parasitizing the leaves of the plant was counted, and a controlling value was determined by the following equation. Controlling value (%)={1−(Cb×Tai)/(Cai×Tb)}×100 wherein Cb: the number of insects in a non-treated section before treatment, Cai: the number of insects in a non-treated section on observation, Tb: the number of insects in a treated-section before treatment, Tai: the number of insects in a treated section on observation.

SMILES: CCc1cc(C)cc(CC)c1-c1c(OC)c(C)nn(C)c1=O [Compound D]
controlling effect on Galium aparine (11 levels, 0 to 10) (Galium aparine): 0
controlling effect on Lolium multiflorum (11 levels, 0 to 10) (Lolium multiflorum): 0
controlling effect on Echinochloa crus-galli (11 levels, 0 to 10) (Echinochloa crus-galli): 0

SMILES: COCOc1c(C)nn(C)c(=O)c1-c1cc(-c2ccc(Cl)cc2)ccc1C [I-1-6]
insecticidal index (death rate) (Adoxophyes orana): 4 (death rate of 100%)
controlling value (Bemisia tabaci): ≥ 90%
controlling value [1]: ≥ 90%
insecticidal index (death rate) (Spodoptera litura): 3 (death rate of 80-99%)
insecticidal index (death rate) (Culex pipiens pallens): 4 (death rate of 91-100%)
controlling value (Aphis gossypii): ≥ 90%

melting point: 142 to 143 °C
SMILES: CCc1cc(CC)c(-c2c(OCS(C)(=O)=O)c(C)nn(C)c2=O)c(CC)c1 [I-4-1, 2,6-dimethyl-5-methylsulfonylmethoxy-4-(2,4,6-triethylphenyl)-3(2H)-pyridazinone]
